Consider three compounds from US20050281821A1, “Method and composition for angiogenesis inhibition” (priority 1999, published 2005).

One test has as its system MDA-MB-435 tumor cells. Nature of the test: Orthotopic MDA-MB-435 human breast tumor model in mice. The test is classed as in vivo, female nude mice. Here is the method: The effect of antibodies D93 and H8 in an orthotopic human breast tumor model was evaluated. MDA-MB-435 tumor cells (0.4×10^6 cells/mouse) in 50 μl PBS were orthotopically implanted in the mammary fat pad of female nude mice (five to six weeks old). When tumors reached a mean volume of approximately 50-80 mm^3, mice were randomized (at least 10/group) and intravenous treatment with D93 and H8 at 1 μg (0.05 mg/kg) per dose, 10 μg (0.5 mg/kg), 100 μg (5 mg/kg) or 200 μg (10 mg/kg), or 100 μg control antibody DP28 in 100 μl PBS, or vehicle PBS 100 μl twice per week was initiated; in some studies, an untreated group was also evaluated.
Tumor sizes were measured every 7-20 days starting at the first day of treament and continued until day 50-80 post-treatment. Tumor length (L) and width (W) were measured with calipers and tumor volumes were calculated using the formula: (L×W^2)/2 where L was the length of the tumor or the largest diameter, and W was the width or shortest diameter. Animals were euthanized at the end of the study and final tumor measurements were recorded.
The effect of combination treatment of D93 with Taxol was evaluated for eight weeks in the orthotopic MDA-MB-435 human breast tumor model in mice. MDA-MB-435 tumor cells were implanted into female nude mice as described in Example 20. Animals were randomized into seven treatment groups (n=12-13/group) with mean tumor volume 78 mm^3. D93 was administered at 100 μg/dose (5 mg/kg) twice weekly. Taxol was administered intraperitoneally at 3 or 6 mg/kg q.w. A vehicle control group of animals received PBS twice weekly and HBSS once weekly. Another control group received DP28 control antibody, administered at 100 μg/dose, twice weekly. Treatments with D93 and Taxol, as well as controls, were initiated on the same day (Day 1).
Tumor sizes were measured every 7 days starting at the first day of treatment and continued until day 55 post-treatment. Measurements were recorded as (L×W^2)/2 where L is the length of the tumor or the largest diameter, and W is the width or shortest diameter. Animals were euthanized at the end of the study and the final measurements were recorded.
In a study similar to that described in Example 21, Taxol was administered intraperitoneally at 6 or 10 mg/kg q.w. Animals were treated for 51 days.

In test [1] the test system is MX-1 human breast carcinoma cells. Nature of the test: Non-orthotopic MX-1 human breast tumor model. The class given is in vivo, SCID mice. Here is the method: A study was performed in the staged subcutaneous (non-orthotopic) MX-1 breast tumor model. Female, 7 week-old, SCID mice were injected in the dorsal right flank with 0.75×10^7 MX-1 human breast carcinoma cells in 100 μl of PBS. Treatments were initiated when MX-1 tumors grew to a mean volume of 115 mm^3. The animals were randomly divided into 5 treatment groups, each having 6-7 animals per group. Animals were treated with D93 (i.v., 2×/week) and/or Taxol 100 μl volume (i.p. 2×/week), as outlined below. One control group of animals remained untreated, and another received PBS (vehicle) only. The animals were treated for 25 days.
Tumor size was measured every 7-20 days starting at first day-post randomization and continued until the end of the study. Measurements were recorded as (L×W^2)/2 where L is the length of the tumor or the largest diameter, and W is the width or shortest diameter. Animals were euthanized at the end of the study and final tumor measurements were recorded.

Test [2] deals with protease produced by HUVEC that unmasks the cryptic site in type-IV collagen. As to the kind of experiment: Unmasking of HUIV26 cryptic site in collagen type-IV by HUVEC conditioned media. The test is classed as biochemical, human. Here is the method: Microtiter plates were coated with extracellular matrix components, each at a concentration of 25 μg/ml. A). Mab HUIV26 was added at a concentration of 1 μg/ml, followed 1 hour later with goat anti-mouse peroxidase labeled IgG. Denatured collagen type-I and collagen type-IV were prepared by boiling for 15 minutes before coating the plates. All data were corrected for any non-specific binding of secondary antibody. Data bars represent the mean optical density (O.D.)±standard deviations from triplicate wells. B). Microtiter wells were coated with triple helical collagen type-IV at 25 μg/ml. Concentrated (20×) HUVEC conditioned media was added to the wells in the presence or absence of EDTA, aprotinin or both and allowed to incubate for 1, 6 and 24 hours. The plates were next washed, blocked and incubated with Mab HUIV26 or control antibody. All data were corrected for non-specific secondary antibody binding. Data bars represent the mean optical density (O.D.)±standard deviations from triplicate wells. The following abbreviations are used in the figure Coll-I, collagen type-I; Coll-IV, collagen type-IV.

[3] abbreviates: Table IV, D93 or DP-28 100 μg i.v. 2×/week and/or Taxol 6 mg/kg i.p. 1×/week.
The mark [4] stands for this setting: Table IV, Taxol 3 mg/kg i.p. 1×/week alone or with D93 100 μg i.v. 2×/week.
The mark [5] stands for this setting: Table V, D93 or DP-28 100 μg i.v. 2×/week and/or Taxol 6 mg/kg i.p. 1×/week.
[6] abbreviates: Table V, Taxol 10 mg/kg i.p. 1×/week alone or with D93 100 μg i.v. 2×/week.
[7] abbreviates: Table VI, D93 100 μg i.v. 2×/week and/or Taxol 6 mg/kg i.p. 2×/week.

For `CC(=O)O[C@H]1C(=O)[C@@]2(C)[C@H]([C@H](OC(=O)c3ccccc3)[C@]3(O)C[C@H](OC(=O)[C@H](O)[C@@H](NC(=O)c4ccccc4)c4ccccc4)C(C)=C1C3(C)C)[C@]1(OC(C)=O)CO[C@@H]1C[C@@H]2O` [Taxol, paclitaxel], the “inhibition of tumor volume compared to DP28” value in the test on MDA-MB-435 tumor cells (Example 21, D93 100 μg/dose twice per week and/or Taxol 6 mg/kg q.w.) was found to be 42%. The “inhibition of tumor growth compared to DP-28” value in the test on MDA-MB-435 tumor cells (Example 21, Taxol 3 mg/kg q.w. alone or plus D93 100 μg/dose twice per week) came to 6%. Moreover, in the test on MDA-MB-435 tumor cells (setting [3]), the “Tumor volume, Day 1” value is 78 mm^3; the “Tumor volume, Day 8” value is reported as 203 mm^3; the “Tumor volume, Day 27” value is on record as 315 mm^3; the “Tumor volume, Day 34” value was determined as 399 mm^3. Further, in the test with MDA-MB-435 tumor cells (setting [3]), the “Tumor volume, Day 41” value came out at 530 mm^3; the “Tumor volume, Day 48” value is given as 688 mm^3; the “Tumor volume, Day 54” value was determined as 793 mm^3; the “Tumor volume, Day 55” value was found to be 787 mm^3. Besides, in the test with MDA-MB-435 tumor cells (setting [4]), the “Tumor volume, Day 1” value is 78 mm^3; the “Tumor volume, Day 8” value worked out at 257 mm^3; the “Tumor volume, Day 27” value stood at 361 mm^3; the “Tumor volume, Day 34” value was 476 mm^3. In the test with MDA-MB-435 tumor cells (setting [4]), the “Tumor volume, Day 41” value was 604 mm^3; the “Tumor volume, Day 48” value is on record as 815 mm^3; the “Tumor volume, Day 54” value turned out to be 1034 mm^3; the “Tumor volume, Day 55” value was 1275 mm^3. In the test with MDA-MB-435 tumor cells (setting [5]), the “Tumor volume, Day 1” value worked out at 58.55 mm^3; the “Tumor volume, Day 21” value was found to be 210.6 mm^3; the “Tumor volume, Day 32” value is reported as 392.04 mm^3; the “Tumor volume, Day 39” value is recorded as 559.9 mm^3. Besides, in the test on MDA-MB-435 tumor cells (setting [5]), the “Tumor volume, Day 45” value was found to be 771 mm^3 and the “Tumor volume, Day 51” value worked out at 866 mm^3. Further, in the test on MDA-MB-435 tumor cells (setting [6]), the “Tumor volume, Day 1” value is reported as 58.6 mm^3; the “Tumor volume, Day 21” value is given as 196.5 mm^3; the “Tumor volume, Day 32” value is 361.56 mm^3; the “Tumor volume, Day 39” value stood at 487.05 mm^3. For the same compound, in the test on MDA-MB-435 tumor cells (setting [6]), the “Tumor volume, Day 45” value turned out to be 672 mm^3 and the “Tumor volume, Day 51” value came out at 820 mm^3. Moreover, the “effect on tumor growth” value in test [1] (FIG. 39, D93 100 μg and/or Taxol 6 mg/kg, 25 days) is recorded as “inhibit tumor growth”. Moreover, in test [1] (setting [7]), the “Tumor volume, Day 1” value was 119 mm^3; the “Tumor volume, Day 5” value was determined as 224.19 mm^3; the “Tumor volume, Day 12” value amounted to 602 mm^3; the “Tumor volume, Day 19” value is 761.89 mm^3. In test [1] (setting [7]), the “Tumor volume, Day 26” value came out at 1196 mm^3.
`O=C(O)CN(CCN(CC(=O)O)CC(=O)O)CC(=O)O` [EDTA]: in test [2] (FIG. 11B), the “effect on the HUVEC protease that unmasks the cryptic site in type-IV collagen” value was “inhibited”.
Consider aprotinin, for which the “block of Mab HUIV26 reactivity observed in the absence of protease inhibitor” value was found to be 40% in test [2] (6 hour time point) and 70% in test [2] (24 hour time point). Further, in test [2] (one hour of incubation with HUVEC conditioned media), the “effect on unmasking of cryptic site(s) in type-IV collagen” value is “little effect”.
